In US7223773B2, “4-oxoquinolizine antibacterial agent having 2-pyridone skeleton as partial structure” (Salo Pharmaceutical Co., Ltd., priority 2001, dated 2007):
≈ marks a conversion by molar mass, not a printed value. Read-outs that look alike come from different tables or passages of the source.

How the values were obtained:
Assay type in all cases: cell-based
[1] = system: Propionibacterium acnes JCM 6425; experiment: in vitro antibacterial activity on anaerobic bacteria (MIC); settings: Cutibacterium acnes, JCM6425; Propionibacterium acnes JCM 6425, anaerobic; read-out: Antimicrobial spectrum MIC
Method: (§1) The in vitro antibacterial activities of the compounds provided by the present invention were tested by a standard method of Chemotherapy Society of Japan, i.e. an agar plate dilution method disclosed in CHEMOTHERAPY Vol. 29, pages 76–79, 1981, and the activities of them on anaerobic bacteria were tested by a method disclosed in CHEMOTHERAPY Vol. 27, 559–590, 1979. The results were shown in terms of the minimum inhibition concentration (MIC, μg/ml) for the growth of the bacteria.

[2] = system: Bacteroides thetaiotaomicron ATCC 29741; experiment: as above
Method: as §1

[3] = system: Bacteroides fragilis GAI 0675; experiment: as above; settings: GAI0675; Bacteroides fragilis GAI 0675, anaerobic; read-out: Antimicrobial spectrum MIC
Method: as §1

[4] = system: Klebsiella pneumoniae IID 865; experiment: in vitro antibacterial activity, agar plate dilution method (MIC); settings: IID865, read-out: Antimicrobial spectrum MIC
Method: as §1

[5] = system: Streptococcus pneumoniae IID 553; experiment: as above; settings: IID553, read-out: Antimicrobial spectrum MIC
Method: as §1

[6] = system: Staphylococcus aureus IFO 13276; experiment: as above; settings: IFO13276, read-out: Antimicrobial spectrum MIC
Method: as §1

[7] = system: Branhamella catarrhalis IID 5233; experiment: as above; settings: Moraxella catarrhalis, IID5233, read-out: Antimicrobial spectrum MIC
Method: as §1

[8] = system: Enterococcus faecalis RIMD 3116001; experiment: as above; settings: RIMD3116001, read-out: Antimicrobial spectrum MIC
Method: as §1

[9] = system: Staphylococcus aureus JCM 2874; experiment: as above; settings: JCM2874, read-out: Antimicrobial spectrum MIC
Method: as §1

[10] = system: Staphylococcus epidermidis IFO 12993; experiment: as above; settings: IFO12993, read-out: Antimicrobial spectrum MIC
Method: as §1

[11] = system: Staphylococcus aureus Clin-211(MRSA); experiment: as above; settings: read-out: Antimicrobial spectrum MIC
Method: as §1

[12] = system: Micrococcus luteus KI 3122; experiment: as above; settings: KI3122, read-out: Antimicrobial spectrum MIC
Method: as §1

[13] = system: Escherichia coli IFO 12734; experiment: as above; settings: IFO12734, read-out: Antimicrobial spectrum MIC
Method: as §1

[14] = system: Pseudomonas aeruginosa CSJ 1853; experiment: as above; settings: CSJ1853, read-out: Antimicrobial spectrum MIC
Method: as §1

[15] = system: Haemophilus influenzae IID 984; experiment: as above; settings: IID984, read-out: Antimicrobial spectrum MIC
Method: as §1

[16] = system: Enterococcus faecalis CSJ 1212; experiment: as above; settings: CSJ1212, read-out: Antimicrobial spectrum MIC
Method: as §1

[17] = system: Staphylococcus aureus IID 803(Smith); experiment: as above; settings: IID803, read-out: Antimicrobial spectrum MIC
Method: as §1

[18] = system: Bacillus subtilis JCM 2499; experiment: as above; settings: JCM2499, read-out: Antimicrobial spectrum MIC
Method: as §1

[19] = ATCC29741, Bacteroides thetaiotaomicron ATCC 29741, anaerobic, read-out: Antimicrobial spectrum MIC

Cc1ccc(-c2ccn3c(=O)c(C(=O)O)cc(C4CC4)c3c2C)cc1N [Example 63, 8-(3-Amino-4-methylphenyl)-1-cyclopropyl-9-methyl-4-oxo-4H-quinolizine-3-carboxylic acid]
MIC [1]: 0.031 µg/mL (≈ 0.089 µM)
MIC [2, 19]: 0.25 µg/mL (≈ 0.718 µM)
MIC [3]: 0.063 µg/mL (≈ 0.181 µM)
MIC [4]: 0.016 µg/mL (≈ 0.0459 µM)
MIC [5]: 1 µg/mL (≈ 2.87 µM)
MIC [6]: 0.008 µg/mL (≈ 0.023 µM)
MIC [7]: 0.063 µg/mL (≈ 0.181 µM)
MIC [8]: 1 µg/mL (≈ 2.87 µM)
MIC [9]: 0.008 µg/mL (≈ 0.023 µM)
MIC [10]: 0.016 µg/mL (≈ 0.0459 µM)
MIC [11]: 0.063 µg/mL (≈ 0.181 µM)
MIC [12]: 0.125 µg/mL (≈ 0.359 µM)
MIC [13]: 0.125 µg/mL (≈ 0.359 µM)
MIC [14]: 1 µg/mL (≈ 2.87 µM)
MIC [15]: 0.125 µg/mL (≈ 0.359 µM)
MIC [16]: 0.5 µg/mL (≈ 1.44 µM)
MIC [17]: 0.008 µg/mL (≈ 0.023 µM)
MIC [18]: ≤ 0.004 µg/mL

Cc1c(-c2ccc(N)nc2)ccn2c(=O)c(C(=O)O)cc(C3CC3)c12 [Example 89, 8-(6-Aminopyridin-3-yl)-1-cyclopropyl-9-methyl-4-oxo-4H-quinolizine-3-carboxylic acid]
MIC [1]: 0.5 µg/mL (≈ 1.49 µM)
MIC [2, 19]: 1 µg/mL (≈ 2.98 µM)
MIC [3]: 0.5 µg/mL (≈ 1.49 µM)
MIC [4]: 0.016 µg/mL (≈ 0.0477 µM)
MIC [5]: 0.5 µg/mL (≈ 1.49 µM)
MIC [6]: 0.031 µg/mL (≈ 0.0924 µM)
MIC [7]: 0.125 µg/mL (≈ 0.373 µM)
MIC [8]: 0.5 µg/mL (≈ 1.49 µM)
MIC [9]: 0.063 µg/mL (≈ 0.188 µM)
MIC [10]: 0.125 µg/mL (≈ 0.373 µM)
MIC [11]: 0.5 µg/mL (≈ 1.49 µM)
MIC [12]: 0.5 µg/mL (≈ 1.49 µM)
MIC [13]: 0.25 µg/mL (≈ 0.745 µM)
MIC [14]: 1 µg/mL (≈ 2.98 µM)
MIC [15]: 0.031 µg/mL (≈ 0.0924 µM)
MIC [16]: 0.25 µg/mL (≈ 0.745 µM)
MIC [17]: 0.063 µg/mL (≈ 0.188 µM)
MIC [18]: 0.016 µg/mL (≈ 0.0477 µM)

Cc1c(-c2cccc(CN(C)C)c2)ccn2c(=O)c(C(=O)O)cc(C3CC3)c12 [Example 117, 1-Cyclopropyl-8-(3-dimethylaminomethylphenyl)-9-methyl-4-oxo-4H-quinolizine-3-carboxylic acid]
MIC [1]: 0.5 µg/mL (≈ 1.33 µM)
MIC [2, 19]: 1 µg/mL (≈ 2.66 µM)
MIC [3]: 0.5 µg/mL (≈ 1.33 µM)
MIC [4]: 0.031 µg/mL (≈ 0.0823 µM)
MIC [5]: 0.5 µg/mL (≈ 1.33 µM)
MIC [6]: 0.063 µg/mL (≈ 0.167 µM)
MIC [7]: 0.125 µg/mL (≈ 0.332 µM)
MIC [8]: 1 µg/mL (≈ 2.66 µM)
MIC [9]: 0.125 µg/mL (≈ 0.332 µM)
MIC [10]: 0.125 µg/mL (≈ 0.332 µM)
MIC [11]: 1 µg/mL (≈ 2.66 µM)
MIC [12]: 1 µg/mL (≈ 2.66 µM)
MIC [13]: 0.5 µg/mL (≈ 1.33 µM)
MIC [14]: 1 µg/mL (≈ 2.66 µM)
MIC [15]: 0.063 µg/mL (≈ 0.167 µM)
MIC [16]: 0.5 µg/mL (≈ 1.33 µM)
MIC [17]: 0.063 µg/mL (≈ 0.167 µM)
MIC [18]: 0.031 µg/mL (≈ 0.0823 µM)

Cc1c(-c2cccc(CN3CCNCC3)c2)ccn2c(=O)c(C(=O)O)cc(C3CC3)c12 [Example 119, 1-Cyclopropyl-9-methyl-4-oxo-8-(3-piperazin-1-ylmethylphenyl)-4H-quinolizine-3-carboxylic acid]
MIC [1]: 2 µg/mL (≈ 4.79 µM)
MIC [2, 19]: 2 µg/mL (≈ 4.79 µM)
MIC [3]: 1 µg/mL (≈ 2.4 µM)
MIC [4]: 0.063 µg/mL (≈ 0.151 µM)
MIC [5]: 0.5 µg/mL (≈ 1.2 µM)
MIC [6]: 0.063 µg/mL (≈ 0.151 µM)
MIC [7]: 0.25 µg/mL (≈ 0.599 µM)
MIC [8]: 1 µg/mL (≈ 2.4 µM)
MIC [9]: 0.063 µg/mL (≈ 0.151 µM)
MIC [10]: 0.125 µg/mL (≈ 0.299 µM)
MIC [11]: 1 µg/mL (≈ 2.4 µM)
MIC [12]: 1 µg/mL (≈ 2.4 µM)
MIC [13]: 1 µg/mL (≈ 2.4 µM)
MIC [14]: 4 µg/mL (≈ 9.58 µM)
MIC [15]: 0.25 µg/mL (≈ 0.599 µM)
MIC [16]: 0.5 µg/mL (≈ 1.2 µM)
MIC [17]: 0.063 µg/mL (≈ 0.151 µM)
MIC [18]: 0.016 µg/mL (≈ 0.0383 µM)

COc1ccc(-c2ccn3c(=O)c(C(=O)O)cc(C4CC4)c3c2C)cc1CN [Example 121, 8-(3-Aminomethyl-4-methoxyphenyl)-1-cyclopropyl-9-methyl-4-oxo-4H-quinolizine-3-carboxylic acid]
MIC [1]: 0.25 µg/mL (≈ 0.661 µM)
MIC [2, 19]: 4 µg/mL (≈ 10.6 µM)
MIC [3]: 0.5 µg/mL (≈ 1.32 µM)
MIC [4]: ≤ 0.004 µg/mL
MIC [5]: 0.031 µg/mL (≈ 0.0819 µM)
MIC [6]: 0.016 µg/mL (≈ 0.0423 µM)
MIC [7]: 0.063 µg/mL (≈ 0.166 µM)
MIC [8]: 0.063 µg/mL (≈ 0.166 µM)
MIC [9]: 0.016 µg/mL (≈ 0.0423 µM)
MIC [10]: 0.031 µg/mL (≈ 0.0819 µM)
MIC [11]: 0.25 µg/mL (≈ 0.661 µM)
MIC [12]: 0.125 µg/mL (≈ 0.33 µM)
MIC [13]: 0.063 µg/mL (≈ 0.166 µM)
MIC [14]: 0.5 µg/mL (≈ 1.32 µM)
MIC [15]: 0.008 µg/mL (≈ 0.0211 µM)
MIC [16]: 0.031 µg/mL (≈ 0.0819 µM)
MIC [17]: 0.016 µg/mL (≈ 0.0423 µM)
MIC [18]: ≤ 0.004 µg/mL

C[C@H]1COc2c(N3CCN(C)CC3)c(F)cc3c(=O)c(C(=O)O)cn1c23 [Levofloxacin, reference compound]
MIC [1]: 0.25 µg/mL (≈ 0.692 µM)
MIC ([2]; Bacteroides thetaiotaomicron, ATCC29741, read-out: Antimicrobial spectrum MIC): 4 µg/mL (≈ 11.1 µM)
MIC [3]: 0.5 µg/mL (≈ 1.38 µM)
MIC [4]: 0.008 µg/mL (≈ 0.0221 µM)
MIC [5]: 0.5 µg/mL (≈ 1.38 µM)
MIC [6]: 0.125 µg/mL (≈ 0.346 µM)
MIC [7]: 0.031 µg/mL (≈ 0.0858 µM)
MIC [8]: 1 µg/mL (≈ 2.77 µM)
MIC [9]: 0.25 µg/mL (≈ 0.692 µM)
MIC [10]: 0.25 µg/mL (≈ 0.692 µM)
MIC [11]: 4 µg/mL (≈ 11.1 µM)
MIC [12]: 1 µg/mL (≈ 2.77 µM)
MIC [13]: 0.031 µg/mL (≈ 0.0858 µM)
MIC [14]: 0.5 µg/mL (≈ 1.38 µM)
MIC [15]: 0.016 µg/mL (≈ 0.0443 µM)
MIC [16]: 0.5 µg/mL (≈ 1.38 µM)
MIC [17]: 0.125 µg/mL (≈ 0.346 µM)
MIC [18]: 0.031 µg/mL (≈ 0.0858 µM)
